Experimental data published in patent US8822699B2, “Heterocyclic compound and use thereof” (Takeda Pharmaceutical Company Limited, priority 2010, dated 2014).
Read-outs that look alike come from different tables or passages of the source.

Key:
[1] = system: Aβ42 production in primary nerve cells; assay: Measurement of amyloid β production inhibition rate using primary nerve cell (Aβ42 sandwich ELISA); assay type: cell-based; conditions: primary nerve cells from cerebral cortex of SD rat fetus, cultured 3 days with compound, culture supernatant, sandwich ELISA for Aβ42, read-out: Aβ42 production inhibitory activity IC50
Experimental: Measurement of Amyloid β Production Inhibition Rate Using Primary Nerve Cell
The primary nerve cells were collected from the cerebral cortex of rat fetus (CLEA Japan, Inc.: SD rat, fetal life 17 days of age), and suspended in a neurobasal medium containing B27 supplement, L-glutamine, penicillin-streptomycin (manufactured by Invitrogen) at 500,000 cells/mL. Then, the suspension was seeded in poly L-lysine-coated 96 well plate (manufactured by SUMITOMO BAKELITE) by 100 μL, and cultured at 37° C., 5% CO2 for 7 days. The medium was completely removed, and a new neurobasal medium was added at 75 μL/well. Thereto was added (75 μL/well) a neurobasal medium supplemented with a 2-fold measurement concentration of an evaluation target compound, and the mixture was cultured for 3 days. The culture supernatant was collected from each well, diluted as appropriate, applied to sandwich ELISA between BNT77 antibody-BA27 antibody (for Aβ40) and sandwich ELISA between BNT77 antibody-3005 antibody (for Aβ42), and the amounts of Aβ40 and Aβ42 were measured.
The amyloid β production inhibition rate (%) of the compound was calculated by the following formula. (1−(amyloid β production amount with addition of compound)/(amyloid β production amount without addition of compound))×100
The amyloid β production 50% inhibitory rate (IC50 value) was calculated using the statistical analysis software (SAS Preclinical Package) as the concentration of the compound showing 50% inhibition when the amyloid β production amount without addition of the compound is 100%. In addition, a new neurobasal medium was added (75 μL/well) to the cells after collection of the culture supernatant, and the cells were left standing for about 30 min to reach room temperature. Cell-Titer Glo Luminescent Cell Viability Assay (manufactured by Promega) was added at 75 μL/well, and the plate was shaken for 2 min and reacted for about 10 min.

[2] = system: Aβ42 (soluble Aβ in hippocampi); assay: Aβ42 in hippocampi of mice after oral administration (Aβ ELISA); assay type: in vivo; conditions: C57BL/6J mice, 10 mg/kg orally, hippocampi isolated 3 hours after administration, soluble Aβ42 by two-site sandwich ELISA; for inhibition at 10 mg/kg: Mus musculus, po, 3 h, read-out: Aβ42 production inhibitory activity (% inhibition); for Aβ42 production inhibitory activity (% inhibition): 10 mg/kg
Experimental: C57BL/6J mice (7-10 weeks old) were purchased from CLEA Japan Inc. Mice were housed in groups and kept on a 12 h-light; 12 h-dark schedule. All mice were given ad libitum access to food and water.
Each test compound was reconstituted in solubilization buffer ([DMSO (Wako)]: [10% Cremophor (Nakarai)+30% polyethylene glycol 400 (Wako)+60% 2 mol/L Citrate buffer (Wako)]=1:9) and orally administrated at 10 mg/kg.
Hippocampi was isolated from animals, 3 hours after test compounds were orally administrated. Hippocampi were homogenized in ice-cold Tris-extraction buffer (50 mmol/L Tris-HCl, pH 7.2, 200 mmol/L sodium chloride, 2% protease-free bovine serum albumin, and 0.01% sodium merthiolate) containing protease inhibitor cocktails (Roche, Switzerland). After centrifugation at 15,000 rpm for 15 minutes, the supernatants were subjected to two-site sandwich ELISA to measure amount of soluble Aβ. Aβ42 was quantitated by two-site sandwich ELISA using BNT77, which recognizes Aβ11-28, as a capture antibody and BC05-HRP as a detector antibody, respectively.

Row | IC50 ([1]; Rattus norvegicus, 72 h) [nM] | IC50 [1] [nM] | Compound | inhibition at 10 mg/kg [2] [%] | Aβ42 production inhibitory activity (% inhibition) [2] [%]
1 | 27 | – | COc1nc(-c2nnc3n2CCCC3(Oc2ccc(Cl)c(F)c2)C(C)(C)O)ccc1-n1cnc(C)c1 (stereo not shown) [Example 1, 2-{8-(4-chloro-3-fluorophenoxy)-3-[6-methoxy-5-(4-methyl-1H-imidazol-1-yl)pyridin-2-yl]-5,6,7,8-tetrahydro[1,2,4]triazolo[4,3-a]pyridin-8-yl}propan-2-ol] | 40 | –
2 | – | 19 | COc1nc(-c2nnc3n2CCCC3(Oc2ccc(F)c(C(F)(F)F)c2)C(C)(C)O)ccc1-n1cnc(C)c1 (stereo not shown) [Example 2, 2-{8-[4-fluoro-3-(trifluoromethyl)phenoxy]-3-[6-methoxy-5-(4-methyl-1H-imidazol-1-yl)pyridin-2-yl]-5,6,7,8-tetrahydro[1,2,4]triazolo[4,3-a]pyridin-8-yl}propan-2-ol] | – | 48
3 | – | 5 | COc1cc(-c2nnc3n2CCCC3(CC2CC2)c2ccc(F)c(F)c2)ccc1-c1cnc(C)o1 (stereo not shown) [Example 21, optically active 8-(cyclopropylmethyl)-8-(3,4-difluorophenyl)-3-[3-methoxy-4-(2-methyl-1,3-oxazol-5-yl)phenyl]-5,6,7,8-tetrahydro[1,2,4]triazolo[4,3-a]pyridine] | 39 | –
4 | 59 | – | COc1cc(-c2nnc3n2CCCC3(Oc2ccc(F)c(F)c2)C(C)(C)O)ccc1-c1cnc(C)o1 (stereo not shown) [Example 92, 2-{8-(3,4-difluorophenoxy)-3-[3-methoxy-4-(2-methyl-1,3-oxazol-5-yl)phenyl]-5,6,7,8-tetrahydro[1,2,4]triazolo[4,3-a]pyridin-8-yl}propan-2-ol] | – | 32
5 | 20 | – | COc1cc(-c2nnc3n2CCCC3(Oc2cc(F)c(F)c(F)c2)C(C)(C)O)ccc1-c1cnc(C)o1 (stereo not shown) [Example 99, 2-{3-[3-methoxy-4-(2-methyl-1,3-oxazol-5-yl)phenyl]-8-(3,4,5-trifluorophenoxy)-5,6,7,8-tetrahydro[1,2,4]triazolo[4,3-a]pyridin-8-yl}propan-2-ol] | 34 | –
6 | 41 | – | COc1cc(-c2nnc3n2CCCC3(Oc2cccc(C(F)(F)F)c2)C(C)(C)O)ccc1-c1cnc(C)o1 (stereo not shown) [Example 103, 2-{3-[3-methoxy-4-(2-methyl-1,3-oxazol-5-yl)phenyl]-8-[3-(trifluoromethyl)phenoxy]-5,6,7,8-tetrahydro[1,2,4]triazolo[4,3-a]pyridin-8-yl}propan-2-ol] | 42 | –
7 | – | 41 | COc1cc(-c2nnc3n2CCCC3(Oc2ccc(C(F)(F)F)cc2)C(C)(C)O)ccc1-c1cnc(C)o1 (stereo not shown) [Example 104, 2-{3-[3-methoxy-4-(2-methyl-1,3-oxazol-5-yl)phenyl]-8-[4-(trifluoromethyl)phenoxy]-5,6,7,8-tetrahydro[1,2,4]triazolo[4,3-a]pyridin-8-yl}propan-2-ol] | – | 36
8 | – | 10 | COc1cc(-c2nnc3n2CCCC3(Oc2ccc(Cl)c(F)c2)C(C)(C)O)ccc1-c1cnc(C)o1 (stereo not shown) [Example 111, 2-{8-(4-chloro-3-fluorophenoxy)-3-[3-methoxy-4-(2-methyl-1,3-oxazol-5-yl)phenyl]-5,6,7,8-tetrahydro[1,2,4]triazolo[4,3-a]pyridin-8-yl}propan-2-ol] | 46 | –
9 | 4 | – | CCC(O)(CC)C1(Oc2ccc(Cl)c(F)c2)CCCn2c(-c3ccc(-c4cnc(C)o4)c(OC)c3)nnc21 (stereo not shown) [Example 120, 3-{8-(4-chloro-3-fluorophenoxy)-3-[3-methoxy-4-(2-methyl-1,3-oxazol-5-yl)phenyl]-5,6,7,8-tetrahydro[1,2,4]triazolo-[4,3-a]pyridin-8-yl}pentan-3-ol] | 21 | –
10 | 19 | – | COc1cc(-c2nnc3n2CCC[C@]3(Oc2cc(F)c(F)c(F)c2)C(C)(C)O)ccc1-c1cnc(C)o1 [Example 122, 2-{(8R)-3-[3-methoxy-4-(2-methyl-1,3-oxazol-5-yl)phenyl]-8-(3,4,5-trifluorophenoxy)-5,6,7,8-tetrahydro[1,2,4]triazolo[4,3-a]pyridin-8-yl}propan-2-ol] | 54 | –
11 | 103 | – | Cc1ncc(-c2ccc(-c3nnc4n3CCCC4(Oc3ccc(F)c(F)c3)C(C)(C)O)cc2OCC(F)F)o1 (stereo not shown) [Example 175, 2-{3-[3-(2,2-difluoroethoxy)-4-(2-methyl-1,3-oxazol-5-yl)phenyl]-8-(3,4-difluorophenoxy)-5,6,7,8-tetrahydro[1,2,4]-triazolo[4,3-a]pyridin-8-yl}propan-2-ol] | – | –
12 | – | 34 | COc1nc(-c2nnc3n2CCC[C@]3(Oc2cc(F)c(F)c(F)c2)C(C)(C)O)ccc1-n1cnc(C)c1 [Example 177, 2-{(8R)-3-[6-methoxy-5-(4-methyl-1H-imidazol-1-yl)pyridin-2-yl]-8-(3,4,5-trifluorophenoxy)-5,6,7,8-tetrahydro[1,2,4]triazolo[4,3-a]pyridin-8-yl}propan-2-ol monophosphate] | – | –
13 | 168 | – | Cc1ncc(-c2ccc(-c3nnc4n3CCCC4(Oc3cc(F)c(F)c(F)c3)C(C)(C)O)cc2)o1 (stereo not shown) [Example 178, 2-{3-[4-(2-methyl-1,3-oxazol-5-yl)phenyl]-8-(3,4,5-trifluorophenoxy)-5,6,7,8-tetrahydro[1,2,4]triazolo[4,3-a]pyridin-8-yl}propan-2-ol] | – | –
14 | 58 | – | COc1cc(-c2nnc3n2CCCC3(Nc2cc(F)c(F)c(F)c2)C(C)(C)O)ccc1-c1cnc(C)o1 (stereo not shown) [Example 181, 2-{3-[3-methoxy-4-(2-methyl-1,3-oxazol-5-yl)phenyl]-8-[(3,4,5-trifluorophenyl)amino]-5,6,7,8-tetrahydro[1,2,4]triazolo[4,3-a]pyridin-8-yl}propan-2-ol] | – | –
15 | – | 29 | COc1nc(-c2nnc3n2CCC[C@]3(Oc2cc(F)c(F)c(F)c2)C(C)(C)O)ccc1-n1cnc(C)c1 [Example 187, 2-{(8R)-3-[6-methoxy-5-(4-methyl-1H-imidazol-1-yl)pyridin-2-yl]-8-(3,4,5-trifluorophenoxy)-5,6,7,8-tetrahydro[1,2,4]triazolo[4,3-a]pyridin-8-yl}propan-2-ol 1(+)-mandelate] | – | –
16 | – | 8 | COc1cc(-c2nnn3c2CCCC3(Oc2cc(F)c(F)c(F)c2)C(C)(C)O)ccc1-c1cnc(C)o1 (stereo not shown) [Example 191, optically active 2-{3-[3-methoxy-4-(2-methyl-1,3-oxazol-5-yl)phenyl]-7-(3,4,5-trifluorophenoxy)-4,5,6,7-tetrahydro[1,2,3]triazolo[1,5-a]pyridin-7-yl}propan-2-ol] | – | –
17 | – | 33 | COc1nc(-c2nnc3n2CCC[C@]3(Oc2cc(F)c(F)c(F)c2)C(C)(C)O)ccc1-n1cnc(C)c1 [Example 194, 2-{(8R)-3-[6-methoxy-5-(4-methyl-1H-imidazol-1-yl)pyridin-2-yl]-8-(3,4,5-trifluorophenoxy)-5,6,7,8-tetrahydro[1,2,4]triazolo[4,3-a]pyridin-8-yl}propan-2-ol 0.67 phosphate] | – | –
18 | – | 30 | COc1nc(-c2nnc3n2CCC[C@]3(Oc2cc(F)c(F)c(F)c2)C(C)(C)O)ccc1-n1cnc(C)c1 [Example 197, 2-{(8R)-3-[6-methoxy-5-(4-methyl-1H-imidazol-1-yl)pyridin-2-yl]-8-(3,4,5-trifluorophenoxy)-5,6,7,8-tetrahydro[1,2,4]triazolo[4,3-a]pyridin-8-yl}propan-2-ol monogentisate] | – | –
